Measurements: patent US7160508B2, “Personal care products having elastomeric portions” (The Gillette Company, priority 2001, dated 2007)
In brackets after ≈: the same amount, converted by molar mass.

Experiment: Minimum inhibitory concentration (agar plate dilution, molds)
Assay type: cell-based
Conditions: 168 h; lowest concentration in sterile water and agar with no growth visible to the naked eye after 7 days at 27±2° C.
From the text: Preferred antimicrobial agents will inhibit mold growth at relatively low concentrations of antimicrobial agent, i.e., preferred antimicrobial agents will have a low “minimum inhibitory concentration” (MIC), measured as parts per million (ppm) concentration in sterile water and agar using the test procedure discussed below. If the MIC is high, a high concentration of antimicrobial agent will generally be necessary in order to obtain sufficient antifungal activity, resulting in increased cost and a potential adverse affect on the properties of the elastomeric material. For example, high concentrations of antifungal agent may tend to increase the hardness of the thermoplastic elastomer. Preferred antimicrobial agents have an MIC of less than about 100 ppm.
Minimum inhibitory concentration is measured by diluting the antimicrobial agent in sterile water to obtain a plurality of solutions having a range of concentrations. 1 ml of each of the solutions is added to 9 ml portions of molten agar to give a final volume of 10 ml, and immediately poured to form plates. […] The plates are incubated at 27±2° C. and analyzed for growth at 3, 5 and 7 days. […]

CCCCCCCCn1sc(Cl)c(Cl)c1=O [4,5-dichloro-2-n-octyl-4-isothiazolin-3-one]
MIC: ~50 µg/mL (≈ 177 µM)
